System: FLUV (A/WSN/33)
Format: cell-based, influenza A/WSN/33

CCOC(=O)C1=C[C@@H](OC(CC)CC)[C@H](NC(C)=O)[C@@H](N)C1 [Oseltamivir]
activity against FLUV after 7 passages with compound (resistance development): lost activity by passage 7

Source: article PMC8687465 (bioRxiv, 2023)
